Data published in patent US20230233576A1, “ECLITASERTIB FOR USE IN TREATING CONDITIONS INVOLVING SYSTEMIC HYPERINFLAMMATORY RESPONSE” (priority 2020, published 2023).

Assays:
[1] = tested on: adult participants hospitalized for severe COVID-19; assay: Phase 1b severe COVID-19 study: ECG abnormalities (PCSA); format: in vivo, human; details: for HR (bpm) Delta (change from baseline) / HR (bpm) Value / PR % change from baseline / PR (ms) Value / QRS % change from baseline / QRS (ms) Value / QT (ms) Delta (change from baseline) / QT (ms) Value / QTcB (ms) Delta (change from baseline) / QTcB (ms) Value / QTcF (ms) Delta (change from baseline) / QTcF (ms) Value: Discharge Before Day 15
Experimental: (§1) Physical examination including lung auscultation and assessment of consciousness, vital sign, electrocardiogram (ECG) parameters were measured per protocol.
(§2) For laboratory parameters (hematology, clinical chemistry, and urinalysis), vital signs, and ECG, incidences of potentially clinically significant abnormality (PCSA) values, actual values and change from baseline were summarized by treatment group.
(§3) For all laboratory, vital signs and ECG parameters, raw data and change from baseline were summarized in descriptive statistics by treatment group and scheduled time of measurement, with the exception of AST, ALT and alkaline phosphatase: instead of summarizing data in descriptive statistics, participants' profiles were presented through graphics by treatment group and with a color code to identify sites. The reason was that blood samples were processed by local laboratories with different normal ranges. For the rest of clinical laboratory these parameters it is reasonable to pool data as they are standard procedure and no significant differences in normal ranges were expected.

[2] = tested on: SARS-COV-2 viral load in blood; assay: Phase 1b severe COVID-19 study: quantitative SARS-COV-2 viral load in blood; details: for Viral load in plasma: <1660 CP/ML SARS-COV2, number of participants / Viral load in plasma: <1660 CP/ML SARS-COV2, share of participants (in parentheses) / Viral load in plasma: INCONCLUSIVE, number of participants / Viral load in plasma: INCONCLUSIVE, share of participants (in parentheses) / Viral load in plasma: NO SARS-COV2 DETECTED, number of participants / Viral load in plasma: NO SARS-COV2 DETECTED, share of participants (in parentheses) / Viral load in plasma: POSITIVE RESULT, number of participants / Viral load in plasma: POSITIVE RESULT, share of participants (in parentheses): 600 mg (N = 41); for Viral load in plasma: Positive result, Mean / Viral load in plasma: Positive result, Median: 600 mg, participants with positive result
Description: The clinical assessment in this study included both the assessment of clinical laboratory variables (CRP, laboratory markers of severe COVID-19 [D-Dimer, hematology parameters and thrombolytic therapy and vasopressor treatment]), oxygenation variables (saturated oxygen [SpO2], SpO2/fraction of inspired oxygen [FiO2] ratio), and clinical status variables (7-point clinical scale). The pharmacodynamic assessment included the measurement of peripheral biomarkers (pro-inflammatory cytokines and RIPK1 PD cytokines/chemokines), and optional measurement of viral load of SARS-CoV-2.
Exploratory clinical assessments endpoints included: • Change from baseline in ferritin and LDH at Day 7 and EOT • Proportion of participants per category of the 7-point clinical scale at EOT • Time to improvement by 2 points in category of 7-point clinical scale • Quantitative SARS-COV-2 viral load in blood at baseline and on Day 3, 5, 7 and EOT
Summary of quantitative measurement of SARS-COV-2 plasma viral load over time (at baseline, Day 3, 5, 7, and EOT) is provided in Table 28. An overall trend of decrease viral load and increased number of negative SARS-COV-2 tests were observed over time. Due to a high variability in the viral load values, no interpretation could be drawn for the effect of treatment on the viral load.

[3] = tested on: adult participants hospitalized for severe COVID-19; assay: Phase 1b severe COVID-19 study: vital signs abnormalities (PCSA); format: in vivo, human; details: 600 mg, TEAE period
Experimental: as §1, §2, §3

[4] = 600 mg (N = 47), TEAE period, safety population
[5] = individual participant 84.0 kg, 600 mg
[6] = individual participant 98.0 kg, 600 mg
[7] = individual participant 114.0 kg, 600 mg

CN1C(=O)[C@@H](NC(=O)c2nnc(Cc3ccccc3)[nH]2)COc2cccnc21 [RIPK1 Inhibitor, (S)-5-benzyl-N-(5-methyl-4-oxo-2,3,4,5-tetrahydropyrido[3,2-b][1,4]oxazepin-3-yl)-4H-1,2,4-triazole-3-carboxamide]
ECG PCSA Heart Rate <40 beats/min [1, 4]: 0/44
ECG PCSA Heart Rate <50 beats/min [1, 4]: 1/44
ECG PCSA Heart Rate <50 beats/min and decrease from baseline ≥20 beats/min [1, 4]: 0/44
ECG PCSA Heart Rate >100 beats/min [1, 4]: 3/44
ECG PCSA Heart Rate >100 beats/min and increase from baseline ≥20 beats/min [1, 4]: 3/44
ECG PCSA Heart Rate >120 beats/min [1, 4]: 1/44
ECG PCSA Heart Rate >120 beats/min and increase from baseline 20 beats/min [1, 4]: 1/44
ECG PCSA Heart rate>90 beats/min [1, 4]: 6/44
ECG PCSA PR Interval >200 msec [1, 4]: 1/43
ECG PCSA PR Interval >200 msec and increase from baseline ≥25% [1, 4]: 0/43
ECG PCSA PR Interval >220 msec [1, 4]: 1/43
ECG PCSA PR Interval >220 msec and increase from baseline ≥25% [1, 4]: 0/43
ECG PCSA PR Interval >240 msec [1, 4]: 0/43
ECG PCSA QRS Interval >110 msec [1, 4]: 6/44
ECG PCSA QRS Interval >110 msec and increase from baseline ≥25% [1, 4]: 3/44
ECG PCSA QRS Interval >120 msec [1, 4]: 3/44
ECG PCSA QRS Interval >120 msec and increase from baseline ≥25% [1, 4]: 2/44
ECG PCSA QT Interval >500 msec [1, 4]: 0/44
ECG PCSA QTc Bazett - change from baseline: Increase from baseline >60 msec [1, 4]: 5/39
ECG PCSA QTc Bazett - change from baseline: Increase from baseline ]30-60] msec [1, 4]: 2/39
ECG PCSA QTc Bazett >450 msec [1, 4]: 5/44
ECG PCSA QTc Bazett >500 msec [1, 4]: 3/44
ECG PCSA QTc Bazett>480 msec [1, 4]: 3/44
ECG PCSA QTc Fridericia - change from baseline: Increase from baseline >60 msec [1, 4]: 2/25
ECG PCSA QTc Fridericia - change from baseline: Increase from baseline ]30-60] msec [1, 4]: 2/25
ECG PCSA QTc Fridericia >450 msec [1, 4]: 1/29
ECG PCSA QTc Fridericia >480 msec [1, 4]: 1/29
ECG PCSA QTc Fridericia >500 msec [1, 4]: 0/29
ECG PCSA heart rate>90 beats/min and increase from baseline≥20 beats/min [1, 4]: 5/44
ECG PCSA Heart rate>90 beats/min ([1]; 600 mg, TEAE period): 6 participants
ECG PCSA QRS interval>110 ms ([1]; 600 mg, TEAE period): 6 participants
ECG PCSA QTc Bazett (QTcB)>450 ms ([1]; 600 mg, TEAE period): 5 participants
ECG PCSA QTc Bazett change from baseline>60 ms ([1]; 600 mg, TEAE period): 5 participants
ECG PCSA QTc Bazett>480 msec ([1]; 600 mg, TEAE period): 3 participants
ECG PCSA QTc Bazett>500 ms ([1]; 600 mg, TEAE period): 3 participants
ECG PCSA heart rate>90 beats/min and increase from baseline≥20 beats/min ([1]; 600 mg, TEAE period): 5 participants
HR (bpm) Delta (change from baseline) [1, 5]: −5 bpm
HR (bpm) Value [1, 5]: 73 bpm
PR % change from baseline [1, 5]: 0.0%
PR (ms) Value [1, 5]: 120 ms
QRS % change from baseline [1, 5]: 5.0%
QRS (ms) Value [1, 5]: 84 ms
QT (ms) Delta (change from baseline) [1, 5]: 0 ms
QT (ms) Value [1, 5]: 380 ms
QTcB (ms) Delta (change from baseline) [1, 5]: 69 ++ ms
QTcB (ms) Value [1, 5]: 449 ms
QTcF (ms) Delta (change from baseline) [1, 5]: -34 ms
QTcF (ms) Value [1, 5]: 380 ms
HR (bpm) Delta (change from baseline) [1, 6]: −1 bpm
HR (bpm) Value [1, 6]: 81 bpm
PR % change from baseline [1, 6]: 12.3%
PR (ms) Value [1, 6]: 164 ms
QRS % change from baseline [1, 6]: −14%
QRS (ms) Value [1, 6]: 95 ms
QT (ms) Delta (change from baseline) [1, 6]: -3 ms
QT (ms) Value [1, 6]: 371 ms
QTcB (ms) Delta (change from baseline) [1, 6]: 84 ++ ms
QTcB (ms) Value [1, 6]: 431 ms
QTcF (ms) Delta (change from baseline) [1, 6]: -5 ms
QTcF (ms) Value [1, 6]: 410 ms
HR (bpm) Delta (change from baseline) [1, 7]: 38 + bpm
HR (bpm) Value [1, 7]: 96 + bpm
PR % change from baseline [1, 7]: −11%
PR (ms) Value [1, 7]: 160 ms
QRS % change from baseline [1, 7]: −20%
QRS (ms) Value [1, 7]: 80 ms
QT (ms) Delta (change from baseline) [1, 7]: -30 ms
QT (ms) Value [1, 7]: 360 ms
QTcB (ms) Delta (change from baseline) [1, 7]: 72 ++ ms
QTcB (ms) Value [1, 7]: 455 + ms
QTcF (ms) Delta (change from baseline) [1, 7]: 36 + ms
QTcF (ms) Value [1, 7]: 421 ms
Viral load in plasma: <1660 CP/ML SARS-COV2, number of participants ([2]; DAY 01 (baseline, predose)): 14
Viral load in plasma: <1660 CP/ML SARS-COV2, share of participants (in parentheses) ([2]; DAY 01 (baseline, predose)): (34.1)
Viral load in plasma: INCONCLUSIVE, number of participants ([2]; DAY 01 (baseline, predose)): 1
Viral load in plasma: INCONCLUSIVE, share of participants (in parentheses) ([2]; DAY 01 (baseline, predose)): (2.4)
Viral load in plasma: NO SARS-COV2 DETECTED, number of participants ([2]; DAY 01 (baseline, predose)): 11
Viral load in plasma: NO SARS-COV2 DETECTED, share of participants (in parentheses) ([2]; DAY 01 (baseline, predose)): (26.8)
Viral load in plasma: POSITIVE RESULT, number of participants ([2]; DAY 01 (baseline, predose)): 7
Viral load in plasma: POSITIVE RESULT, share of participants (in parentheses) ([2]; DAY 01 (baseline, predose)): (17.1)
Viral load in plasma: <1660 CP/ML SARS-COV2, number of participants ([2]; DAY 03): 12
Viral load in plasma: <1660 CP/ML SARS-COV2, share of participants (in parentheses) ([2]; DAY 03): (29.3)
Viral load in plasma: INCONCLUSIVE, number of participants ([2]; DAY 03): 2
Viral load in plasma: INCONCLUSIVE, share of participants (in parentheses) ([2]; DAY 03): (4.9)
Viral load in plasma: NO SARS-COV2 DETECTED, number of participants ([2]; DAY 03): 16
Viral load in plasma: NO SARS-COV2 DETECTED, share of participants (in parentheses) ([2]; DAY 03): (39.0)
Viral load in plasma: POSITIVE RESULT, number of participants ([2]; DAY 03): 4
Viral load in plasma: POSITIVE RESULT, share of participants (in parentheses) ([2]; DAY 03): (9.8)
Viral load in plasma: <1660 CP/ML SARS-COV2, number of participants ([2]; DAY 07): 1
Viral load in plasma: <1660 CP/ML SARS-COV2, share of participants (in parentheses) ([2]; DAY 07): (2.4)
Viral load in plasma: INCONCLUSIVE, number of participants ([2]; DAY 07): 2
Viral load in plasma: INCONCLUSIVE, share of participants (in parentheses) ([2]; DAY 07): (4.9)
Viral load in plasma: NO SARS-COV2 DETECTED, number of participants ([2]; DAY 07): 12
Viral load in plasma: NO SARS-COV2 DETECTED, share of participants (in parentheses) ([2]; DAY 07): (29.3)
Viral load in plasma: POSITIVE RESULT, number of participants ([2]; DAY 07): 1
Viral load in plasma: POSITIVE RESULT, share of participants (in parentheses) ([2]; DAY 07): (2.4)
Viral load in plasma: <1660 CP/ML SARS-COV2, number of participants ([2]; EOT): 4
Viral load in plasma: <1660 CP/ML SARS-COV2, share of participants (in parentheses) ([2]; EOT): (9.8)
Viral load in plasma: INCONCLUSIVE, number of participants ([2]; EOT): 1
Viral load in plasma: INCONCLUSIVE, share of participants (in parentheses) ([2]; EOT): (2.4)
Viral load in plasma: NO SARS-COV2 DETECTED, number of participants ([2]; EOT): 28
Viral load in plasma: NO SARS-COV2 DETECTED, share of participants (in parentheses) ([2]; EOT): (68.3)
Viral load in plasma: POSITIVE RESULT, number of participants ([2]; EOT): 0
Viral load in plasma: Positive result, Mean ([2]; DAY 01 (baseline, predose)): 30217.6 copies/mL
Viral load in plasma: Positive result, Median ([2]; DAY 01 (baseline, predose)): 7560.0 copies/mL
Viral load in plasma: Positive result, Mean ([2]; DAY 03): 7505.0 copies/mL
Viral load in plasma: Positive result, Median ([2]; DAY 03): 6332.5 copies/mL
Viral load in plasma: Positive result, Mean ([2]; DAY 07): 6240.0 copies/mL
Viral load in plasma: Positive result, Median ([2]; DAY 07): 6240.0 copies/mL
participants with systolic blood pressure≤95 mmHg and decrease from baseline≥20 mmHg [3]: 4 participants
PCSA Diastolic Blood Pressure ≤45 mmHg and decrease from baseline ≥10 mmHg ([3]; Safety population): 1/47
PCSA Diastolic Blood Pressure ≥110 mmHg and increase from baseline ≥10 mmHg ([3]; Safety population): 0/47
PCSA Heart Rate ≤50 beats/min and decrease from baseline ≥20 beats/min ([3]; Safety population): 0/47
PCSA Heart Rate ≥120 beats/min and increase from baseline 20 beats/min ([3]; Safety population): 1/47
PCSA Systolic Blood Pressure ≤95 mmHg and decrease from baseline ≥20 mmHg ([3]; Safety population): 4/47
PCSA Systolic Blood Pressure ≥160 mmHg and increase from baseline ≥20 mmHg ([3]; Safety population): 4/47
